From patent US9403808B2, “Pyrazine derivatives” (Hoffmann-La Roche Inc., priority 2011, dated 2016)
Where two headings read alike, the source gives them in different places.

Tests used:
[1] = target: human CB2 receptors (Homo sapiens (Human), UniProt P34972); assay: functional cAMP assay, CB2; type: cell-based
Method: (§1) CHO cells expressing human CB1 or CB2 receptors are seeded 17-24 hours prior to the experiment 50.000 cells per well in a black 96 well plate with flat clear bottom (Corning Costar #3904) in DMEM (Invitrogen No. 31331), 1×HT supplement, with 10% fetal calf serum and incubated at 5% CO2 and 37° C. in a humidified incubator. The growth medium was exchanged with Krebs Ringer Bicarbonate buffer with 1 mM IBMX and incubated at 30° C. for 30 min. Compounds were added to a final assay volume of 100 μl and incubated for 30 min at 30° C. Using the cAMP-Nano-TRF detection kit the assay (Roche Diagnostics) was stopped by the addition of 50 μl lysis reagent (Tris, NaCl, 1.5% Triton X100, 2.5% NP40, 10% NaN3) and 50 μl detection solutions (20 μM mAb Alexa700-cAMP 1:1, and 48 μM Ruthenium-2-AHA-cAMP) and shaken for 2 h at room temperature. The time-resolved energy transfer is measured by a TRF reader (Evotec Technologies GmbH), equipped with a ND:YAG laser as excitation source. The plate is measured twice with the excitation at 355 nm and at the emission with a delay of 100 ns and a gate of 100 ns, total exposure time 10s at 730 (bandwidth 30 nm) or 645 nm (bandwidth 75 nm), respectively. The FRET signal is calculated as follows: FRET=T730-Alexa730-P(T645-B645) with P=Ru730-B730/Ru645-B645, where T730 is the test well measured at […], T645 is the test well measured at 645 nm, B730 and B645 are the buffer controls at 730 nm and 645 nm, respectively. cAMP content is determined from the function of a standard curve spanning from 10 μM to 0.13 nM cAMP.
(§2) EC50 values were determined using Activity Base analysis (ID Business Solution, Limited). The EC50 values for a wide range of cannabinoid agonists generated from this assay were in agreement with the values published in the scientific literature.

[2] = target: human CB1 receptors (Homo sapiens (Human), UniProt P21554); assay: functional cAMP assay, CB1; type: cell-based
Method: as §1, §2

[3] = functional cAMP assay, CHO cells expressing human CB2, read-out: human CB2 EC50
[4] = functional cAMP assay, CHO cells expressing human CB1, read-out: human CB1 EC50

Chain of human CB2 receptors (P34972 whole entry): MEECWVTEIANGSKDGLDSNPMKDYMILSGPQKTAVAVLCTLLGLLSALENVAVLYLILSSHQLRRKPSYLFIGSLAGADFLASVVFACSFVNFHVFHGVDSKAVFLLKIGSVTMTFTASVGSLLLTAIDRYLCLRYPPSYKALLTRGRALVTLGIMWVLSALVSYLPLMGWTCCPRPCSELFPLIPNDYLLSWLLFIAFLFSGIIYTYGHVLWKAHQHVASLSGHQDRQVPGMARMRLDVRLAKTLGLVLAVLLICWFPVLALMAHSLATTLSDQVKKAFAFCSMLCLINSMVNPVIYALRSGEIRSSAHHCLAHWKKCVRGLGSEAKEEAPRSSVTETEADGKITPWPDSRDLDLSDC
Chain of human CB1 receptors (P21554 whole entry): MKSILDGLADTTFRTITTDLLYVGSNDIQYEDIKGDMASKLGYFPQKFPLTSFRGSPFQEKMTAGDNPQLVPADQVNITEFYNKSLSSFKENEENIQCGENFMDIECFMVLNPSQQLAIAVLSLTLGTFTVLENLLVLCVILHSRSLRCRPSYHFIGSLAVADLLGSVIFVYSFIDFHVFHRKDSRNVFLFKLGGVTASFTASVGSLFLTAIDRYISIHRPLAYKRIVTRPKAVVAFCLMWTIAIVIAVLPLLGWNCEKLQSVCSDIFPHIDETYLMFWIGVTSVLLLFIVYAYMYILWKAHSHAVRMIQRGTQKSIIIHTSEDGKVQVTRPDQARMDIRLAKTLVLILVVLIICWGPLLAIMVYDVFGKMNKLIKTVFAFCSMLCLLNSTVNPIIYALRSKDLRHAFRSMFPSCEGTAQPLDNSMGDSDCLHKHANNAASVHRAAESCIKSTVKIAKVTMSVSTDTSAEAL

| Structure (SMILES) | EC50 [1, 3] [nM] | also measured |
| --- | --- | --- |
| NC(=O)[C@H]1CCCC[C@H]1NC(=O)c1cnc(N2CC(F)(F)C2)c(OCC2CC2)n1 (single isomer, unassigned) [Example 81] |  | EC50 [1]: 31.2 nM |
| Cc1nc([C@@H](NC(=O)c2cnc(C3CC3)c(OCC3CC3)n2)C2CC2)no1 (stereo in doubt) [Example 40, 5-Cyclopropyl-6-cyclopropylmethoxy-pyrazine-2-carboxylic acid [(SR)-cyclopropyl-(5-methyl-[1,2,4]oxadiazol-3-yl)-methyl]-amide] |  | EC50 [1]: 30.8 nM; EC50 [2]: > 10000 nM |
| Cc1nc([C@H](NC(=O)c2cnc(C3CC3)c(OCC3CC3)n2)C2CC2)no1 (stereo in doubt) [Example 41, 5-Cyclopropyl-6-cyclopropylmethoxy-pyrazine-2-carboxylic acid [(RS)-cyclopropyl-(5-methyl-[1,2,4]oxadiazol-3-yl)-methyl]-amide] |  | EC50 [1]: 518 nM; EC50 [2]: > 10000 nM |
| Cc1nc([C@@H](NC(=O)c2cnc(N3CC(F)(F)C3)c(OCC3CC3)n2)C2CC2)no1 (stereo in doubt) [Example 42, 6-Cyclopropylmethoxy-5-(3,3-difluoro-azetidin-1-yl)-pyrazine-2-carboxylic acid [(SR)-cyclopropyl-(5-methyl-[1,2,4]oxadiazol-3-yl)-methyl]-amide] |  | EC50 [1]: 28 nM; EC50 [2]: > 10000 nM |
| Cc1nc([C@H](NC(=O)c2cnc(N3CC(F)(F)C3)c(OCC3CC3)n2)C2CC2)no1 (stereo in doubt) [Example 43, 6-Cyclopropylmethoxy-5-(3,3-difluoro-azetidin-1-yl)-pyrazine-2-carboxylic acid [(RS)-cyclopropyl-(5-methyl-[1,2,4]oxadiazol-3-yl)-methyl]-amide] |  | EC50 [1]: 40.9 nM; EC50 [2]: > 10000 nM |
| Cc1nc(C(C)(C)NC(=O)c2cnc(C3CC3)c(-c3cccc(Cl)c3)n2)no1 [Example 1, 6-(3-Chloro-phenyl)-5-cyclopropyl-pyrazine-2-carboxylic acid [1-methyl-1-(5-methyl-[1,2,4]oxadiazol-3-yl)-ethyl]amide] | 88.1 | EC50 [2, 4]: 1150 nM |
| CC(C)(C#N)NC(=O)c1cnc(C2CC2)c(-c2cccc(Cl)c2)n1 [Example 2, 6-(3-Chloro-phenyl)-5-cyclopropyl-pyrazine-2-carboxylic acid (cyano-dimethyl-methyl)-amide] | 104 | EC50 [2, 4]: > 10000 nM |
| Cc1nc(C2(NC(=O)c3cnc(C4CC4)c(-c4cccc(Cl)c4)n3)CCC2)no1 [Example 3, 6-(3-Chloro-phenyl)-5-cyclopropyl-pyrazine-2-carboxylic acid [1-(5-methyl-[1,2,4]oxadiazol-3-yl)-cyclobutyl]-amide] | 156 | EC50 [2, 4]: > 10000 nM |
| Cc1nc(C(C)(C)NC(=O)c2cnc(N3CC(F)(F)C3)c(-c3cccc(Cl)c3)n2)no1 [Example 4, 6-(3-Chloro-phenyl)-5-(3,3-difluoro-azetidin-1-yl)-pyrazine-2-carboxylic acid [1-methyl-1-(5-methyl-[1,2,4]oxadiazol-3-yl)-ethyl]-amide] | 108 | EC50 [2, 4]: > 10000 nM |
| Cc1nc(C(C)(C)NC(=O)c2cnc(N3CCC3)c(-c3cccc(Cl)c3)n2)no1 [Example 5, 5-Azetidin-1-yl-6-(3-chloro-phenyl)-pyrazine-2-carboxylic acid [1-methyl-1-(5-methyl-[1,2,4]oxadiazol-3-yl)-ethyl]-amide] | 140 | EC50 [2, 4]: > 10000 nM |
| CC(C)(NC(=O)c1cnc(C2CC2)c(-c2cccc(Cl)c2)n1)c1nccs1 [Example 6, 6-(3-Chloro-phenyl)-5-cyclopropyl-pyrazine-2-carboxylic acid (1-methyl-1-thiazol-2-yl-ethyl)-amide] | 48 | EC50 [2, 4]: 892 nM |
| O=C(NN1CCCCC1)c1cnc(C2CC2)c(-c2cccc(Cl)c2)n1 [Example 7, 6-(3-Chloro-phenyl)-5-cyclopropyl-pyrazine-2-carboxylic acid piperidin-1-ylamide] | 255 | EC50 [2, 4]: > 10000 nM |
| NC(=O)[C@@H](NC(=O)c1cnc(C2CC2)c(OCC2CC2)n1)c1ccc(F)cc1 [Example 63, 5-Cyclopropyl-6-cyclopropylmethoxy-pyrazine-2-carboxylic acid [(S)-carbamoyl-(4-fluoro-phenyl)-methyl]-amide] | 96.6 |  |
| NC(=O)[C@@H](NC(=O)c1cnc(N2CC(F)(F)C2)c(OCC2CC2)n1)c1ccc(F)cc1 [Example 64, 6-Cyclopropylmethoxy-5-(3,3-difluoro-azetidin-1-yl)-pyrazine-2-carboxylic acid [(S)-carbamoyl-(4-fluoro-phenyl)-methyl]-amide] | 31.2 |  |
| Cc1nc([C@H](CC2CC2)NC(=O)c2cnc(C3CC3)c(OCC3CC3)n2)no1 [Example 65, 5-Cyclopropyl-6-cyclopropylmethoxy-pyrazine-2-carboxylic acid [(S)-2-cyclopropyl-1-(5-methyl-[1,2,4]oxadiazol-3-yl)-ethyl]-amide] | 20.7 |  |
| COC(=O)[C@H](CC(C)C)NC(=O)c1cnc(N2CC(F)(F)C2)c(OCC2CC2)n1 [Example 66, (S)-2-{[6-Cyclopropylmethoxy-5-(3,3-difluoro-azetidin-1-yl)-pyrazine-2-carbonyl]-amino}-4-methyl-pentanoic acid methyl ester] | 0.4 |  |
| CC(C)C[C@H](NC(=O)c1cnc(N2CC(F)(F)C2)c(OCC2CC2)n1)C(=O)NCC(F)(F)F [Example 67, 6-Cyclopropylmethoxy-5-(3,3-difluoro-azetidin-1-yl)-pyrazine-2-carboxylic acid [(S)-3-methyl-1-(2,2,2-trifluoro-ethylcarbamoyl)-butyl]-amide] | 57.6 |  |
| NC(=O)[C@@H](NC(=O)c1cnc(N2CC(F)(F)C2)c(OCC2CC2)n1)c1ccc(Cl)cc1 [Example 68, 6-Cyclopropylmethoxy-5-(3,3-difluoro-azetidin-1-yl)-pyrazine-2-carboxylic acid [(S)-carbamoyl-(4-chloro-phenyl)-methyl]-amide] | 116 |  |
| CC(C)(CCCO)NC(=O)c1cnc(C2CC2)c(OCC2CC2)n1 [Example 69, 5-Cyclopropyl-6-cyclopropylmethoxy-pyrazine-2-carboxylic acid (4-hydroxy-1,1-dimethyl-butyl)-amide] | 47.4 |  |
| Cc1oc(-c2ccccc2)nc1CC(C)(C)NC(=O)c1cnc(C2CC2)c(OCC2CC2)n1 [Example 71, 5-Cyclopropyl-6-cyclopropylmethoxy-pyrazine-2-carboxylic acid [1,1-dimethyl-2-(5-methyl-2-phenyl-oxazol-4-yl)-ethyl]-amide] | 201 |  |
| CC(CC(C)(C)NC(=O)c1cnc(C2CC2)c(OCC2CC2)n1)c1ccncc1 (stereo not drawn) [Example 72, 5-Cyclopropyl-6-cyclopropylmethoxy-pyrazine-2-carboxylic acid (1,1-dimethyl-3-pyridin-4-yl-butyl)-amide] | 92.6 |  |
| COC(=O)C1(NC(=O)c2cnc(N3CC(F)(F)C3)c(OCC3CC3)n2)CCC1 [Example 73, 1-{[6-Cyclopropylmethoxy-5-(3,3-difluoro-azetidin-1-yl)-pyrazine-2-carbonyl]-amino}-cyclobutanecarboxylic acid methyl ester] | 20.5 |  |
| CC(C)[C@H](CC(N)=O)NC(=O)c1cnc(C2CC2)c(OCC2CC2)n1 [Example 76, 5-Cyclopropyl-6-cyclopropylmethoxy-pyrazine-2-carboxylic acid ((S)-1-carbamoylmethyl-2-methyl-propyl)-amide] | 16.3 |  |
| CC(C)[C@H](CC(N)=O)NC(=O)c1cnc(N2CC(F)(F)C2)c(OCC2CC2)n1 [Example 77, 6-Cyclopropylmethoxy-5-(3,3-difluoro-azetidin-1-yl)-pyrazine-2-carboxylic acid ((S)-1-carbamoylmethyl-2-methyl-propyl)-amide] | 6.5 |  |
| Cc1nc([C@](C)(CC2CC2)NC(=O)c2cnc(N3CC(F)(F)C3)c(OCC3CC3)n2)no1 [Example 78, (+)-6-Cyclopropylmethoxy-5-(3,3-difluoro-azetidin-1-yl)-pyrazine-2-carboxylic acid [2-cyclopropyl-1-methyl-1-(5-methyl-[1,2,4]oxadiazol-3-yl)-ethyl]-amide] | 17.4 |  |
| Cc1nc([C@@](C)(CC2CC2)NC(=O)c2cnc(N3CC(F)(F)C3)c(OCC3CC3)n2)no1 [Example 79, (−)-6-Cyclopropylmethoxy-5-(3,3-difluoro-azetidin-1-yl)-pyrazine-2-carboxylic acid [2-cyclopropyl-1-methyl-1-(5-methyl-[1,2,4]oxadiazol-3-yl)-ethyl]-amide] | 4 |  |
| NC(=O)[C@@H]1CCCC[C@@H]1NC(=O)c1cnc(C2CC2)c(OCC2CC2)n1 [Example 82] | 257 |  |
| NC(=O)[C@H]1CCCC[C@H]1NC(=O)c1cnc(C2CC2)c(OCC2CC2)n1 [Example 83] | 44.4 |  |
